The values below come from patent US8653069B2, “Aralkyl substituted piperidine or piperazine derivatives and their use for treating schizophrenia” (Jiangsu Hengyi Pharmaceutical Co., Ltd., priority 2008, dated 2014).

pIC50: −log10 of the molar value. Where a name gives a salt, the structure may show the parent alone. Read-outs that look alike come from different tables or passages of the source.

In series [1] the target is T1, dopamine D2 receptor (Homo sapiens, UniProt P14416).
T1 construct: expressed in transfected cells; host or cells: CHO-hD2L cells (membrane preparation)
Kind of series: Dopamine D2 receptor-binding assay ([3H]Spiperone displacement). The following applies: inhibition of binding of 0.4 nM [3H]Spiperone, CHO-hD2L film product, room temperature 120 minutes; read-out: IC50 (affinity to D2 receptor). As to the method: A Dopamine D2 Receptor-Binding Assay
An isotope ligand for D2 receptor: [^3H]Spiperone (77.0 Ci/mmol); (+)Butaclamol; GF/C glass fiber media; a liposoluble scintillation solution; and the D2 receptor protein expressed by sf9 cells.
A binding assay of a film product of CHO-hD2L cells and [^3H]Spiperone is conducted in a 250 μl of 50 mM of Tris-HCl […] buffer (Ph=7.4) solution comprising 100 mM of NaCl, 1 mM of MgC12 and 1% of DMSO. A sample in duplicate containing compounds to be tested, 0.4 nM of [^3H]Spiperone and 12 ug of protein is maintained at room temperature for 120 minutes. The bound radioactive ligand is separated by flash filtration under reduced pressure using Whatman GF/B glass fiber filter pre-treated with 0.3% polyethylenelmine, and radioactivity maintained on the filter is measured using liquid scintillation spectrophotometry. The title compounds in the following examples are tested using the above test, which comprises first of all testing competitive inhibition rate of each compound at a concentration of 10 umol/L to binding of [^3H]Spiperone to D2 receptor through a rough screening; and compounds having inhibition rate higher than 95% are subjected to receptor binding assay under a series of concentrations to determine a half-inhibitory concentration (IC50, the concentration of a compound needed for inhibiting binding of 50% [^3H]Spiperone to D2 receptor). Two tubes under each concentration are measured, and each compound is subjected to two independent tests.

The target in series [2] is T2, rD2R (Rattus norvegicus, UniProt P61169).
T2 construct: expressed in transfected cells; host or cells: CHO cells stably expressing rD2R (CHO-rD2)
Kind of series: Antagonistic test of D2 receptor (cAMP radioimmunoassay, Forskolin + Dopamine, CHO-rD2 cells). The format is cell-based. Conditions: 10 μM Forskolin + 10 μM Dopamine, cAMP generated. As to the method:
An Antagonistic Test of D2 Receptor
CHO-rD2 cell is seeded on a 96-well plate at a concentration of 30,000 cells/well, and cultured overnight; each medicine is dissolved in a serum-free F12 culture media containing 100 μM of IBMX, and is added to the above cell for preculturing 30 minutes at 37° C.; thereafter a serum-free F12 culture media containing 10 μM of Forskolin and 10 μM of Dopamine is added and react for 8 minutes, and then 100 μl of pre-cooled 1M HClO4 is added to terminate the reaction. The reaction solution is allowed to stand on ice for 40 minutes, and thereto 20 μl of 2M K2CO3 is added to neutralize the reaction solution. The reaction solution is centrifuged at 3,000 rpm for 15 minutes at 4° C., and a KClO4 deposit is discarded. An amount of supernatant is diluted in 0.05M of acetic acid buffer, and the amount of generated cAMP is measured with radioimmunoassay method. […] See the kit's instructions for detailed steps. Two tubes under each concentration of each compound are measured, and each compound is subjected to two independent tests.
The ordinate of the dose-effect curve represents a reduced percentage of the amount of generated cAMP through antagonist of DA by the compound.

For series [3], the system named is histidine auxotroph mutant of mouse salmonella TA97, TA98, TA100 and TA102. From the text:
Bacterial Reverse Mutation Test of II-1
Strains: histidine auxotroph mutant of mouse salmonella TA97, TA98, TA100 and TA102.
Results: the test consists of two parts, i.e., −S9 and +S9. […] No bacteriostatic actions to all the strains are observed at all other doses, and the growth background is good.

Series [4] can be described thus: Oral absorption in studies on animal models. The format is in vivo.
Series [5] in a line: in vivo. The following applies: mouse, po.
The subject of series [6] is schizophrenia behaviors in mice induced by apomorphine. In words: In vivo anti-schizophrenia activity: apomorphine-induced stereotyped behavior in mice. The following applies: female KM mice, oral gavage 30 minutes before apomorphine 10 mg/kg i.p.; II-1 20 mg/kg, aripiprazole 5 mg/kg, risperidone 0.25 mg/kg. As to the method:
A Test of In Vivo Anti-Schizophrenia Activity of Compound II-1
Apomorphine: apomorphine is dissolved in 0.1% ascorbic acid to form a solution having a dosage of 10 mg/kg.
Aripiprazole is dissolved in physiological saline to form a solution having a dosage of 5 mg/kg, and subjected to ultrasonication for dissolving.
Risperidone is dissolved in physiological saline to form a solution having a dosage of 0.25 mg/kg.
Compound II-1 is formulated to 20 mg/kg, and is formulated in situ for use.
Female KM mice, 18-22 g, are randomly divided into a solvent control group, a model control group, a positive control group, and various treatment groups of the tested medicines. Groups for behavior observation test contain 5 mice each group, and groups for activity observation test contain 4 mice each group.
(1) Administration in mice: each group of mice is administrated with 0.1 ml/10 g of the various tested medicines by oral gavage. […]
The stereotyped behavior numbers of the mice in various groups at six time points are statistically analyzed to calculate an average number of each mouse, and the result is denoted by mean±SD.
The test result of stereotyped behavior is statistically analyzed using a LSD method; and observation result of the numbers of activities of the mice is statistically analyzed with repeated-measures analysis of variance and Q-test.

T1 sequence (P14416 whole entry): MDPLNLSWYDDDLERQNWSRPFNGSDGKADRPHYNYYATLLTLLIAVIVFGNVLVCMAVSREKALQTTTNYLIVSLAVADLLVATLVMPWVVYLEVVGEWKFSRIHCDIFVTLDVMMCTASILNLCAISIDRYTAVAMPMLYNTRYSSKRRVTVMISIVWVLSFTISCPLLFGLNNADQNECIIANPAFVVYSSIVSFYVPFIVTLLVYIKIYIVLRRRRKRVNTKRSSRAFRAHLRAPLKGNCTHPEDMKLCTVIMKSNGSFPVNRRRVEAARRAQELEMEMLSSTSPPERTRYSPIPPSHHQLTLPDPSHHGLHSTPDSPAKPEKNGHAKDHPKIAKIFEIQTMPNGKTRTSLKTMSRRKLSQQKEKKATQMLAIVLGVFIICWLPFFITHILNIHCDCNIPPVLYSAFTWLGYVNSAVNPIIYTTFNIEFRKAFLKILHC
T2 sequence (P61169 whole entry): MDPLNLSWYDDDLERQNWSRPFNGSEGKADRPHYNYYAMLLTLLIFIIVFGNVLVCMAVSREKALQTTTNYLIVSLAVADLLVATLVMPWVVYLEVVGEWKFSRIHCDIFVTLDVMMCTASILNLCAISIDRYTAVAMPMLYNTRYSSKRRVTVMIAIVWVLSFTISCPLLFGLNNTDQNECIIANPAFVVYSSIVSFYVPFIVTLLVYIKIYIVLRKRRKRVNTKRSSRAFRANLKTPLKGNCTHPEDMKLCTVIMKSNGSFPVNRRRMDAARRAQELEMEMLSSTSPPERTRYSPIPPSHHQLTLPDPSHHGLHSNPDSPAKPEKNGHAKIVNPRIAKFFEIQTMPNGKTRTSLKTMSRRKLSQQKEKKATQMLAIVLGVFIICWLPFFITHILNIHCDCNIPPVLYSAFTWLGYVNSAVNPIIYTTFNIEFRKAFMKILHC

A word on the pIC50: it is the IC50 on a negative log10 scale, so that one unit is a factor of ten. The term LD50 denotes the dose at which mortality reaches 50%. Lower therefore signals a more toxic substance. As for `O=C1CCc2ccc(OCCCCN3CCC(c4noc5cc(F)ccc45)CC3)cc2N1` [II-1, 7-[4-(4-(6-fluoro-benzisoxazolyl)-1-piperidinyl)-n-butoxy]-3,4-dihydro-2(1H)-quinolinone hydrochloride], the pIC50 in series [1] was 8.25; in series [2], 5.47. Also, the Ames test result in series [3] (TA97, TA98, TA100, TA102, with or without S9, all tested doses) is reported as “negative”. Moreover, the “dose showing bacteriostatic action” value is recorded as 5000 μg per dish in series [3] (TA97, test system containing S9) and 5000 μg per dish in series [3] (TA98, test system without S9). For the same compound, the oral absorption entry in series [4] was “good”. This compound showed an LD50 in series [5] of over 2000 mg/kg.

As to `O=C1CCc2ccc(OCCCCN3CCN(c4nsc5ccccc45)CC3)cc2N1` [III-1, 7-[4-(1,2-benzisothiazol-3-yl)-1-piperazinyl)-n-butoxy]-3,4-dihydro-2(1H)-quinolinone hydrochloride], the negative logarithm of the IC50 (pIC50) in series [1] is 8.28; in series [2] it was 4.25.

For `O=C1Cc2ccc(OCCCCN3CCC(c4noc5cc(F)ccc45)CC3)cc2N1` [IV-1, 6-[4-(4-(3-(6-fluoro-benzisoxazolyl))-1-piperidinyl)-n-butoxy)-indoline-2-one], the pIC50 in series [1] is 7.41; in series [2], 3.70.

In the case of `O=C1CCc2ccc(OCCCCN3CCN(c4cccc(Cl)c4Cl)CC3)cc2N1` [aripiprazole], the “number of stereotyped activities of mice compared with the model group” value in series [6] is reported as “reduced significantly”. In series [5], the LD50 was 1400 mg/kg.

For `Cc1nc2n(c(=O)c1CCN1CCC(c3noc4cc(F)ccc34)CC1)CCCC2` [risperidone], the “number of stereotyped activities of mice compared with the model group” value in series [6] is listed as “reduced significantly”. This compound also gave an LD50 in series [5] of 83.2 mg/kg.
